Three compounds from paper PMC10167657, “Reaction Mechanism of Glycoside Hydrolase Family 116 Utilizes Perpendicular Protonation” (ACS Catalysis, 2023) can be followed below.

The target of this experiment is T1, TxGH116 β-glucosidase (Thermoanaerobacterium xylanolyticum, UniProt F6BL85, D593N).
T1 construct: gene Thexy_2211; pET30a/TxGH116Δ1-18 (residues 1-18 removed), E. coli BL21(DE3), IMAC, tag cut with enterokinase, Superdex 200
Description: X-ray crystal structure, soaked crystal. Format: binding. The conditions noted are these: pH 5.5.

[1] abbreviates: 200 mM soak, subsites –1 and +1 (Michaelis complex).

T1 sequence (F6BL85 entry or part of it D593N): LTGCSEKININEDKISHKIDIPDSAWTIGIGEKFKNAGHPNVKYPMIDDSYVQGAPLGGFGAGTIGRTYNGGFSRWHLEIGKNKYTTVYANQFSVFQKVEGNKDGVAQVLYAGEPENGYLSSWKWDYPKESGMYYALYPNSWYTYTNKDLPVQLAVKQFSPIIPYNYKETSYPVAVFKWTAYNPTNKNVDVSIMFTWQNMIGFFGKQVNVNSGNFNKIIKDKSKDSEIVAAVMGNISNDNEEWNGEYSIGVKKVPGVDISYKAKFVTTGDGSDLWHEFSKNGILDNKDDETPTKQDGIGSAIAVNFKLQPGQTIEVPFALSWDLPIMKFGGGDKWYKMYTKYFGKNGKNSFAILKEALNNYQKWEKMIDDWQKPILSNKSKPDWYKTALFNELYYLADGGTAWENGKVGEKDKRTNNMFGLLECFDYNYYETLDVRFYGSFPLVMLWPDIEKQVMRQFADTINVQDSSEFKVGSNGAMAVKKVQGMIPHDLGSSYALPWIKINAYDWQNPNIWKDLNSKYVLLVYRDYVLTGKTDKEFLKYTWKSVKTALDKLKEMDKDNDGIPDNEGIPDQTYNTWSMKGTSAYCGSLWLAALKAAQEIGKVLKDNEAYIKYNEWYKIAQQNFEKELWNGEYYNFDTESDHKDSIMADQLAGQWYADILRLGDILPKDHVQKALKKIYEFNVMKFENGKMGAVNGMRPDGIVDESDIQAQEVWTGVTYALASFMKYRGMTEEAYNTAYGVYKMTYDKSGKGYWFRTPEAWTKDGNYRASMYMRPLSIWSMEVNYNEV

As for `O=[N+]([O-])c1ccc(O[C@@H]2O[C@H](CO)[C@@H](O)[C@H](O)[C@H]2F)c([N+](=O)[O-])c1` [2,4-dinitrophenyl 2-deoxy-2-fluroglucopyranoside], the “X-ray crystal structure, soaked crystal” value (covalent 2-deoxy-2-fluoroglucosyl-enzyme at nucleophile E441, 10 mM soak) is “The covalent complex of TxGH116 D593N with G2F exhibits an overall structure”.
With `OC[C@H]1O[C@@H](O[C@H]2[C@H](O)[C@@H](O)C(O)O[C@@H]2CO)[C@H](O)[C@@H](O)[C@@H]1O` (stereo partly drawn) [cellobiose], the “X-ray crystal structure, soaked crystal” value under setting [1] is reported as “The structure of TxGH116 D593N with cellobiose shows the same interactions”.
Turning to `OC[C@H]1O[C@@H](O[C@H]2[C@H](O)[C@@H](CO)OC(O)[C@@H]2O)[C@H](O)[C@@H](O)[C@@H]1O` (stereo partly drawn) [laminaribiose], the “X-ray crystal structure, soaked crystal” value under setting [1] is given as “The TxGH116 D593N variant with laminaribiose (Figure 2B) displays the glycosidic oxygen”.
